PMC5951806, “Rapid labelling and covalent inhibition of intracellular native proteins using ligand-directed N-acyl-N-alkyl sulfonamide” (Nature Communications, 2018)

Assays:
Assay in all cases: TMT LC-MSMS of 11-labelled proteins
Format in all cases: cell-based
[1] = target: Cytochrome b-c1 complex subunit 1, mitochondrial (UQCRC1) (Homo sapiens, UniProt P31930)
[2] = target: Trifunctional enzyme subunit alpha, mitochondrial (HADHA) (Homo sapiens, UniProt P40939)
[3] = target: Tubulin alpha-1B chain (TUBA1B) (Homo sapiens, UniProt P68363)
Sequence of Tubulin alpha-1B chain (TUBA1B) (P68363 whole entry): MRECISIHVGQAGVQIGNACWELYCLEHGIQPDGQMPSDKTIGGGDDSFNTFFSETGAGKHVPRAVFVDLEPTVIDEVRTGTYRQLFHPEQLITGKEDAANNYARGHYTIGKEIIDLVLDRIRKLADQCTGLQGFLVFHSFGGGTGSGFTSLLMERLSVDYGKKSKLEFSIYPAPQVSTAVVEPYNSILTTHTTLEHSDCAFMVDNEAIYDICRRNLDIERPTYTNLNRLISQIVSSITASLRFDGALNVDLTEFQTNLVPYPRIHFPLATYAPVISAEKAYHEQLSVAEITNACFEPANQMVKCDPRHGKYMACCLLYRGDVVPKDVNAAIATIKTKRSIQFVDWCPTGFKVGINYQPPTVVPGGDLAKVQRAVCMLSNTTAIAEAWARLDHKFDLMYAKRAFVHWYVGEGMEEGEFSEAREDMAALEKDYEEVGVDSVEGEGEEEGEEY
Sequence of Tubulin alpha-1B chain (TUBA1B) (P07437 whole entry partner): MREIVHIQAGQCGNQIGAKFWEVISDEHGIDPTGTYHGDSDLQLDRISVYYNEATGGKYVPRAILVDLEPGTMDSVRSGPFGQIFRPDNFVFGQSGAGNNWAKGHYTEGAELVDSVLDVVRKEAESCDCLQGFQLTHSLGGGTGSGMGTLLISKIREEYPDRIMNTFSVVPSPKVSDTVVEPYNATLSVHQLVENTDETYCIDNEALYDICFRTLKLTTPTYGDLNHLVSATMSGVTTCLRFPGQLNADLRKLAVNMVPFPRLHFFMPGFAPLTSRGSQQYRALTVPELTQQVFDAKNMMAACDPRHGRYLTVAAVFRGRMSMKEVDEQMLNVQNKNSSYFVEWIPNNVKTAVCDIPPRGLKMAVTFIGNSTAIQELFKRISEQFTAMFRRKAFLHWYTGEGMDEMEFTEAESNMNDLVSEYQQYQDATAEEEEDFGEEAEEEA

[4] = target: T1, dehydrogenase/reductase SDR family member 2, mitochondrial (DHRS2) (Homo sapiens, UniProt Q13268)
T1 sequence (Q13268 24-280): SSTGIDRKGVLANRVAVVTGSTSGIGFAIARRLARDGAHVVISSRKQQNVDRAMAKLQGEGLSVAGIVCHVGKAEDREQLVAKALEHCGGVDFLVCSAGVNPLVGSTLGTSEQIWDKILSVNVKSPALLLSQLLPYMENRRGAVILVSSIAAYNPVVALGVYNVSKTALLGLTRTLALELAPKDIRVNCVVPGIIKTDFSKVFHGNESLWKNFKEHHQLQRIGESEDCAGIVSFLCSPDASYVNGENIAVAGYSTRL

[5] = target: elongation factor Tu, mitochondrial (TUFM) (Homo sapiens, UniProt P49411)
[6] = sheet Merged, SKBR3 cells, 11 0.5 µM 3 h vs DMSO
[7] = sheet Merged, SKBR3 cells, 11 0.5 µM 3 h vs with PU-H71 10 µM
[8] = sheet Exp1, SKBR3 cells, 11 0.5 µM 3 h vs DMSO
[9] = sheet Exp1, SKBR3 cells, 11 0.5 µM 3 h vs with PU-H71 10 µM

Sequence of Trifunctional enzyme subunit alpha, mitochondrial (HADHA) (P40939 37-763): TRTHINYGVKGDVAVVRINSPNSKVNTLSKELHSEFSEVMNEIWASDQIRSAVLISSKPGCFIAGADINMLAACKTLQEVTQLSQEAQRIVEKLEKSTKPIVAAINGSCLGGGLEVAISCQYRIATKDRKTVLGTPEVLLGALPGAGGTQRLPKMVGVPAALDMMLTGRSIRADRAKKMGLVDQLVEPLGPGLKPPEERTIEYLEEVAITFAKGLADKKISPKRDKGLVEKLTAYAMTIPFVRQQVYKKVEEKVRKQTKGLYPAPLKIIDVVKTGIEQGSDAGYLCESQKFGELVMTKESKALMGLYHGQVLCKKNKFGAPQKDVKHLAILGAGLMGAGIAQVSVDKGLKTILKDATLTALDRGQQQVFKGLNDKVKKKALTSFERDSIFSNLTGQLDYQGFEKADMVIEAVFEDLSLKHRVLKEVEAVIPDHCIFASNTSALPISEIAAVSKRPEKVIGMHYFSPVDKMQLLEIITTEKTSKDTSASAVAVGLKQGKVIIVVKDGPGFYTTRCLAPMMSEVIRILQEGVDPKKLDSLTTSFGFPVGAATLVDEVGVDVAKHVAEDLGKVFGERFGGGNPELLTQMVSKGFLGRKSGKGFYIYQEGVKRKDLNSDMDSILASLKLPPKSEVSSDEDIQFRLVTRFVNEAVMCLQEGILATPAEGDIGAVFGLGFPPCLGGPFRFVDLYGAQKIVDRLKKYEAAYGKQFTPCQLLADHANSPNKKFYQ
Sequence of Trifunctional enzyme subunit alpha, mitochondrial (HADHA) (P55084 34-474 partner): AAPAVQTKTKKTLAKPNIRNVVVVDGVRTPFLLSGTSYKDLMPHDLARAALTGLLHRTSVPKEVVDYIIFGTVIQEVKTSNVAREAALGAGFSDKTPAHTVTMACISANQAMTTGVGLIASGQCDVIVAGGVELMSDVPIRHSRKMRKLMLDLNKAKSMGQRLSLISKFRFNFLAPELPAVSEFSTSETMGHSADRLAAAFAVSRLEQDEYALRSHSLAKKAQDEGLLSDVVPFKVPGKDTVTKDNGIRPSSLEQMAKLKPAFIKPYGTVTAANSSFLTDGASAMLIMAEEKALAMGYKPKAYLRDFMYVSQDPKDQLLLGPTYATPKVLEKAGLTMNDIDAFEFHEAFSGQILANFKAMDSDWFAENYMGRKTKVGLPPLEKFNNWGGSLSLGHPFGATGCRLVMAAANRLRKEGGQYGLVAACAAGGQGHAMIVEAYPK

- Abundance Ratio: (11) / (11 with PU-H71) ([1]; Exp3, UQCRC1): 0.7
- Abundance Ratio: (11) / (DMSO) ([1]; Exp3, UQCRC1): 3
- Abundances (Grouped): 11 ([1]; Exp3, UQCRC1): 50.1
- Abundances (Grouped): 11 with PU-H71 ([1]; Exp3, UQCRC1): 71.6
- Abundance Ratio: (11) / (11 with PU-H71) ([1]; sheet Exp2, UQCRC1): 0.772
- Abundance Ratio: (11) / (DMSO) ([1]; sheet Exp2, UQCRC1): 3.724
- Abundances (Grouped): 11 ([1]; sheet Exp2, UQCRC1): 60.7
- Abundances (Grouped): 11 with PU-H71 ([1]; sheet Exp2, UQCRC1): 78.6
- Abundance Ratio: (11) / (DMSO) [1, 6]: 3.342
- Abundance Ratio: (11) / (11 with PU-H71) [1, 7]: 0.735
- Abundance Ratio: (11) / (11 with PU-H71) ([2]; Exp3, HADHA): 0.887
- Abundance Ratio: (11) / (DMSO) ([2]; Exp3, HADHA): 5.561
- Abundances (Grouped): 11 ([2]; Exp3, HADHA): 1575.4
- Abundances (Grouped): 11 with PU-H71 ([2]; Exp3, HADHA): 1776.8
- Abundance Ratio: (11) / (DMSO) [2, 8]: 7.409
- Abundance Ratio: (11) / (11 with PU-H71) [2, 9]: 0.838
- Abundance Ratio: (11) / (11 with PU-H71) ([2]; sheet Exp2, HADHA): 0.82
- Abundance Ratio: (11) / (DMSO) ([2]; sheet Exp2, HADHA): 5.216
- Abundances (Grouped): 11 ([2]; sheet Exp2, HADHA): 1189.7
- Abundances (Grouped): 11 with PU-H71 ([2]; sheet Exp2, HADHA): 1451.4
- Abundance Ratio: (11) / (DMSO) [2, 6]: 7.058
- Abundance Ratio: (11) / (11 with PU-H71) [2, 7]: 0.838
- Abundance Ratio: (11) / (11 with PU-H71) ([3]; Exp3, TUBA1B): 0.849
- Abundance Ratio: (11) / (DMSO) ([3]; Exp3, TUBA1B): 4.864
- Abundances (Grouped): 11 ([3]; Exp3, TUBA1B): 236.9
- Abundances (Grouped): 11 with PU-H71 ([3]; Exp3, TUBA1B): 279
- Abundance Ratio: (11) / (DMSO) [3, 8]: 6.965
- Abundance Ratio: (11) / (11 with PU-H71) [3, 9]: 0.862
- Abundance Ratio: (11) / (11 with PU-H71) ([3]; sheet Exp2, TUBA1B): 0.827
- Abundance Ratio: (11) / (DMSO) ([3]; sheet Exp2, TUBA1B): 7.231
- Abundances (Grouped): 11 ([3]; sheet Exp2, TUBA1B): 197.4
- Abundances (Grouped): 11 with PU-H71 ([3]; sheet Exp2, TUBA1B): 238.8
- Abundance Ratio: (11) / (DMSO) [3, 6]: 6.965
- Abundance Ratio: (11) / (11 with PU-H71) [3, 7]: 0.862
- Abundance Ratio: (11) / (11 with PU-H71) ([4]; Exp3, DHRS2): 0.644
- Abundance Ratio: (11) / (DMSO) ([4]; Exp3, DHRS2): 2.859
- Abundances (Grouped): 11 ([4]; Exp3, DHRS2): 223.6
- Abundances (Grouped): 11 with PU-H71 ([4]; Exp3, DHRS2): 347.1
- Abundance Ratio: (11) / (DMSO) [4, 8]: 3.162
- Abundance Ratio: (11) / (11 with PU-H71) [4, 9]: 0.783
- Abundance Ratio: (11) / (11 with PU-H71) ([4]; sheet Exp2, DHRS2): 0.6
- Abundance Ratio: (11) / (DMSO) ([4]; sheet Exp2, DHRS2): 3.132
- Abundances (Grouped): 11 ([4]; sheet Exp2, DHRS2): 156.3
- Abundances (Grouped): 11 with PU-H71 ([4]; sheet Exp2, DHRS2): 260.6
- Abundance Ratio: (11) / (DMSO) [4, 6]: 2.859
- Abundance Ratio: (11) / (11 with PU-H71) [4, 7]: 0.644
- Abundance Ratio: (11) / (11 with PU-H71) ([5]; sheet Exp2, TUFM): 1.006
- Abundance Ratio: (11) / (DMSO) ([5]; sheet Exp2, TUFM): 2.039
- Abundances (Grouped): 11 ([5]; sheet Exp2, TUFM): 67.3
- Abundances (Grouped): 11 with PU-H71 ([5]; sheet Exp2, TUFM, with PU-H71): 66.9
- Abundance Ratio: (11) / (DMSO) [5, 6]: 2.024
- Abundance Ratio: (11) / (11 with PU-H71) [5, 7]: 0.818
Structure (SMILES): CC(=O)Oc1ccc2c(c1)Oc1cc(OC(C)=O)ccc1C21OC(=O)c2cc(C(=O)NCCOCCOCCNC(=O)CCCC(=O)N(CC#N)S(=O)(=O)c3ccc(C(=O)NCCCn4c(Sc5cc6c(cc5I)OCO6)nc5c(N)ncnc54)cc3)ccc21 [compound 11]
